Earlier results, collected in patent US20070196518A1, “Composition and Method for Mitigating a Negative Effect of Alcohol Consumption” (priority 2005, published 2007).

Conditions: on average, in subjects who consumed alcohol

Cc1ncc(CO)c(CO)c1O [Vitamin B6, Pyridoxine]
decrease in the number of hangover symptoms: 50%
